Measurements published in ChEMBL document CHEMBL2016451, “Antimycobacterial activity of bisbenzylisoquinoline alkaloids from Tiliacora triandra against multidrug-resistant isolates of Mycobacterium tuberculosis” (Bioorg Med Chem Lett, 2012).
Converted amounts (≈) assume the structure as drawn.

Experiments:
Type in all cases: functional
[1] = test system: Mycobacterium tuberculosis; test: Antimycobacterial activity against isoniazid-, rifampin-resistant Mycobacterium tuberculosis after 16 to 24 hrs by alamar blue assay
[2] = test system: Mycobacterium tuberculosis; test: Antimycobacterial activity against isoniazid-, rifampin-, ethambutol-resistant Mycobacterium tuberculosis after 16 to 24 hrs by alamar blue assay
[3] = test system: Mycobacterium tuberculosis; test: Antimycobacterial activity against isoniazid-, rifampin-, streptomycin-resistant Mycobacterium tuberculosis after 16 to 24 hrs by alamar blue assay
[4] = test system: Mycobacterium tuberculosis; test: Antimycobacterial activity against isoniazid-, rifampin-, streptomycin-, ethambutol-resistant Mycobacterium tuberculosis after 16 to 24 hrs by alamar blue assay
[5] = test system: Mycobacterium tuberculosis; test: Antimycobacterial activity against isoniazid-, rifampin-, ofloxacin-, ethambutol-resistant Mycobacterium tuberculosis after 16 to 24 hrs by alamar blue assay
[6] = test system: Mycobacterium tuberculosis; test: Antimycobacterial activity against isoniazid-, rifampin-, ofloxacin-, streptomycin-resistant Mycobacterium tuberculosis after 16 to 24 hrs by alamar blue assay
[7] = test system: Mycobacterium tuberculosis; test: Antimycobacterial activity against isoniazid-, rifampin-, ofloxacin-, ethambutol-, streptomycin-resistant Mycobacterium tuberculosis after 16 to 24 hrs by alamar blue assay
[8] = test system: Mycobacterium tuberculosis; test: Antimycobacterial activity against ethionamide-resistant Mycobacterium tuberculosis H37Rv ATCC 35830 after 16 to 24 hrs by alamar blue assay
[9] = test system: Mycobacterium tuberculosis; test: Antimycobacterial activity against pyrazinamide-resistant Mycobacterium tuberculosis H37Rv ATCC 35828 after 16 to 24 hrs by alamar blue assay

Structure (SMILES) | MIC [1] | MIC [2] | MIC [3] | MIC [4] | MIC [5] | MIC [6] | MIC [7] | MIC [8] | MIC [9]
CC1COc2c(N3CCN(C)CC3)c(F)cc3c(=O)c(C(=O)O)cn1c23 (stereo not drawn) [OFLOXACIN] | ≤ 2 µg/mL | ≤ 2 µg/mL | ≤ 2 µg/mL | ≤ 2 µg/mL | ≥ 4 µg/mL | ≥ 4 µg/mL | ≥ 4 µg/mL | – | –
COc1ccc2cc1-c1cc(ccc1O)C[C@H]1c3cc4c(cc3CCN1C)Oc1c(OC)cc3c(c1O4)[C@@H](C2)N(C)CC3 [TILIACORINE] | – | – | – | – | – | – | – | 3.1 µg/mL (≈ 5.38 µM) | 6.2 µg/mL (≈ 10.8 µM)
COc1ccc2cc1-c1cc(cc(Br)c1O)C[C@H]1c3cc4c(cc3CCN1C)Oc1c(OC)cc3c(c1O4)[C@H](C2)N(C)CC3 | – | – | – | – | – | – | – | 3.1 µg/mL (≈ 4.73 µM) | 3.1 µg/mL (≈ 4.73 µM)
NNC(=O)c1ccncc1 [ISONIAZID] | ≥ 2 µg/mL | ≥ 2 µg/mL | ≥ 2 µg/mL | ≥ 2 µg/mL | ≥ 2 µg/mL | ≥ 2 µg/mL | ≥ 2 µg/mL | – | –
CN[C@@H]1[C@H](O[C@H]2[C@H](O[C@H]3[C@H](O)[C@@H](O)[C@H](N=C(N)N)[C@@H](O)[C@@H]3N=C(N)N)O[C@@H](C)[C@]2(O)C=O)O[C@@H](CO)[C@H](O)[C@H]1O [STREPTOMYCIN] | ≤ 2 µg/mL | ≤ 2 µg/mL | ≥ 8 µg/mL | ≥ 8 µg/mL | ≤ 2 µg/mL | ≥ 8 µg/mL | ≥ 8 µg/mL | – | –
COc1ccc2cc1-c1cc(ccc1O)C[C@H]1c3cc4c(cc3CCN1C)Oc1c(OC)cc3c(c1O4)[C@H](C2)N(C)CC3 [TILIACORININE] | – | – | – | – | – | – | – | 3.1 µg/mL (≈ 5.38 µM) | 6.2 µg/mL (≈ 10.8 µM)
COc1ccc2cc1-c1cc(ccc1O)C[C@@H]1NCCc3cc4c(cc31)Oc1c(c(OC)cc3c1[C@H](C2)N(C)CC3)O4 | – | – | – | – | – | – | – | 6.2 µg/mL (≈ 11 µM) | 6.2 µg/mL (≈ 11 µM)
CO[C@H]1/C=C/O[C@@]2(C)Oc3c(C)c(O)c4c(O)c(c(/C=N/N5CCN(C)CC5)c(O)c4c3C2=O)NC(=O)/C(C)=C\C=C\[C@H](C)[C@H](O)[C@@H](C)[C@@H](O)[C@@H](C)[C@H](OC(C)=O)[C@@H]1C [RIFAMPIN] | ≥ 2 µg/mL | ≥ 2 µg/mL | ≥ 2 µg/mL | ≥ 2 µg/mL | ≥ 2 µg/mL | ≥ 2 µg/mL | ≥ 2 µg/mL | – | –
CC[C@@H](CO)NCCN[C@@H](CC)CO [ETHAMBUTOL] | ≤ 2 µg/mL | ≥ 8 µg/mL | ≤ 2 µg/mL | ≥ 8 µg/mL | ≥ 8 µg/mL | ≤ 2 µg/mL | ≥ 8 µg/mL | – | –
